From patent US4384118A, “4-(3-Iodopropargyloxy) pyrimidine derivatives” (SPOFA, spojene podniky pro zdravotnickou vyrobu, priority 1980, dated 1983)
Values after ≈ are worked out from the molar mass of the structure shown. Read-outs that look alike come from different tables or passages of the source.

Columns and labels:
Format in all cases: cell-based
[1] = system: Trichophyton Mentagrophytes; test: Minimum inhibitory concentration vs Trichophyton Mentagrophytes; settings: for activity against Trichophyton mentagrophytes compared with known antimycotic agents: comparison with best antimycotic agents previously known; for activity against Trichophyton mentagrophytes (in words): same range as the minimum inhibitory concentrations in Aspergillus niger, 0.3 to 0.7 μg/ml; for MIC: Table A, TM = Trichophyton Mentagrophytes, read-out: Minimum Inhibitory Concentrations
Source text: (§1) For comparative purposes, three of the compounds of formula (1) were compared with Clotrimazole and Haloprogine, well known prior art antimycotic compounds. Comparisons of minimum inhibitory concentration in μg/ml. were made with respect to four strains of […].

Keratinomyces ajelloi = test: Minimum inhibitory concentration vs Keratinomyces ajelloi; settings: Table B
Method: (§2) Additionally, certain compounds of the invention were evaluated with respect to other mold species. Thus, for example, 2-ethylthio-4-(3 iodopropargyloxy) pyrimidine was evaluated with respect to the species identified in Table B, below and the noted minimum inhibitory cencentrations determined: […]

[2] = system: Trichophyton schoenleinii; test: Minimum inhibitory concentration vs Trichophyton schoenleinii; settings: Table B
Method: as §2

Epidermophyton floccosum = test: Minimum inhibitory concentration vs Epidermophyton floccosum; settings: Table B
Method: as §2

Sporotrichum cejpii = test: Minimum inhibitory concentration vs Sporotrichum cejpii; settings: Table B
Method: as §2

Trichophyton verrucosum = test: Minimum inhibitory concentration vs Trichophyton verrucosum; settings: Table B
Method: as §2

Microsporum Canis = test: Minimum inhibitory concentration vs Microsporum Canis; settings: Table B
Method: as §2

Trichophyton rubrum = test: Minimum inhibitory concentration vs Trichophyton rubrum; settings: Table B
Method: as §2

Microsporum gypseum = test: Minimum inhibitory concentration vs Microsporum gypseum; settings: Nannizzia gypsea, Table B
Method: as §2

Aspergillus Niger = test: Minimum inhibitory concentration vs Aspergillus Niger
Source text: as §1

Candida Alicans = test: Minimum inhibitory concentration vs Candida Alicans; settings: Table A, CA = Candida Alicans; read-out: Minimum Inhibitory Concentrations
Source text: as §1

Sacharomyces Pastorianus = test: Minimum inhibitory concentration vs Sacharomyces Pastorianus; settings: Table A, SP = Sacharomyces Pastorianus; read-out: Minimum Inhibitory Concentrations
Source text: as §1

[3] = Aspergillus niger, read-out: minimum inhibitory concentration
[4] = Table A, AN = Aspergillus Niger, read-out: Minimum Inhibitory Concentrations

COc1cnc(N)nc1OCC#CI [2-amino-5-methoxy-4-(3-iodopropargyloxy) pyrimidine]
activity against Trichophyton mentagrophytes compared with known antimycotic agents [1]: comparable with that of the best antimycotic agents previously known | activity against Trichophyton mentagrophytes (in words) [1]: lies in the same range

CCSc1nccc(OCC#CI)n1 [2-ethylthio-4-(3 iodopropargyloxy) pyrimidine]
MIC (Keratinomyces ajelloi): 0.3 µg/mL (≈ 0.937 µM) | MIC [2]: 0.03 µg/mL (≈ 0.0937 µM) | MIC (Epidermophyton floccosum): 0.3 µg/mL (≈ 0.937 µM) | MIC (Sporotrichum cejpii): 0.3 µg/mL (≈ 0.937 µM) | MIC (Trichophyton verrucosum): 0.15 µg/mL (≈ 0.469 µM) | MIC (Microsporum Canis): 0.15 µg/mL (≈ 0.469 µM) | MIC (Trichophyton rubrum): 0.07 µg/mL (≈ 0.219 µM) | MIC (Microsporum gypseum): 0.3 µg/mL (≈ 0.937 µM)

CCSc1ncc(OC)c(OCC#CI)n1 [2-ethylthio-5-methoxy-4-(3-iodopropargyloxy) pyrimidine]
MIC (Aspergillus Niger; [3]): 0.03 µg/mL (≈ 0.0857 µM)

CSc1nccc(OCC#CI)n1 [2-methylthio-4-(3-iodopropargyloxy) pyrimidine]
activity against Trichophyton mentagrophytes compared with known antimycotic agents [1]: comparable with that of the best antimycotic agents previously known | activity against Trichophyton mentagrophytes (in words) [1]: lies in the same range

CSc1ncc(Br)c(OCC#CI)n1 [2-methylthio-5-bromo-4-(3-iodopropargyloxy) pyrimidine]
MIC (Aspergillus Niger; [3]): 0.01 µg/mL (≈ 0.026 µM)

CCOc1cnc(SC)nc1OCC#CI [2-methylthio-5-ethoxy-4-(3-iodopropargyloxy) pyrimidine]
MIC (Aspergillus Niger; [3]): 0.07 µg/mL (≈ 0.2 µM)

COc1cnc(SC)nc1OCC#CI [2-methylthio-5-methoxy-4-(3-iodopropargyloxy) pyrimidine]
activity against Trichophyton mentagrophytes compared with known antimycotic agents [1]: comparable with that of the best antimycotic agents previously known | activity against Trichophyton mentagrophytes (in words) [1]: lies in the same range

Clc1ccccc1C(c1ccccc1)(c1ccccc1)n1ccnc1 [Clotrimazole, reference compound]
MIC (Candida Alicans): 0.3 µg/mL (≈ 0.87 µM) | MIC [1]: 0.03 µg/mL (≈ 0.087 µM) | MIC (Aspergillus Niger; [4]): 3.1 µg/mL (≈ 8.99 µM) | MIC (Sacharomyces Pastorianus): 3.1 µg/mL (≈ 8.99 µM)

CCCSc1ncc(OC)c(OCC#CI)n1 [Compound I, 2 propylthio5-methoxy-4-(3 iodoprogargyloxy) pyrimidine]
MIC (Candida Alicans): 3.1 µg/mL (≈ 8.51 µM) | MIC [1]: 0.07 µg/mL (≈ 0.192 µM) | MIC (Aspergillus Niger; [4]): 0.01 µg/mL (≈ 0.0275 µM) | MIC (Sacharomyces Pastorianus): 0.3 µg/mL (≈ 0.824 µM)

C=CCSc1nccc(OCC#CI)n1 [Compound II, 2allylthio-4-(3-iodopropargyloxy) pyrimidine]
MIC (Candida Alicans): 0.7 µg/mL (≈ 2.11 µM) | MIC [1]: 0.07 µg/mL (≈ 0.211 µM) | MIC (Aspergillus Niger; [4]): 0.3 µg/mL (≈ 0.903 µM) | MIC (Sacharomyces Pastorianus): 0.15 µg/mL (≈ 0.452 µM)

Clc1cc(Cl)c(OCC#CI)cc1Cl [Haloprogine, reference compound]
MIC (Candida Alicans): 1.2 µg/mL (≈ 3.32 µM) | MIC [1]: 0.6 µg/mL (≈ 1.66 µM)
